The subject of series [1] is HBV. Nature of the series: Anti-HBV activity, HepG2.2.15 stable transfected cell line, HBV DNA from secreted virions by realtime PCR. The note with it: Hepatitis B virus. In kind it is cell-based.
Series [2] has as its system HBV. Nature of the series: Anti-HBV activity, HepG2.117 inducible HBV producing cell line (Tet-off), intracellular HBV DNA by realtime PCR. In kind it is cell-based. The note with it: Hepatitis B virus.
A short description of series [3]: Cytotoxicity in HepG2 cells, Resazurin viability assay. The settings on record: human. On the technique in general: Resazurin is reduced to fluorescent resorufin, in cell work by metabolically active cells.
[4] abbreviates: 144 h, HepG2.2.15 cells, 6 days of treatment, HBV DNA from secreted virions, read-out: HepG 2.2.15 EC50.
[5] abbreviates: 72 h, HepG2.117 cells, 3 days of treatment, intracellular HBV DNA, read-out: HepG2 117 EC50.
Setting [6] is: HepG2.2.15, 144 h, read-out: HepG 2.2.15 EC50 (μM).
Where [7] appears, read: HepG2.117, 72 h, read-out: HepG2 117 EC50 (μM).

A value given as a limit tells only on which side of the number the result lay.

Regarding `Cn1cc(C(=O)C(=O)NC2(C)COC2)cc1C(=O)Nc1cccc(C(F)(F)F)c1` [Compound 13, 1-methyl-4-(2-(3-methyloxetan-3-ylamino)-2-oxoacetyl)-N-(3-(trifluoro-methyl)phenyl)-1H-pyrrole-2-carboxamide], the figures for the EC50 in the series with HBV [1] (setting [4]) and with HBV [2] (setting [5]) were 0.033 µM and over 1 µM, respectively. Besides, the half-maximal cytotoxic concentration (CC50) – broadly, the concentration that lowers cell viability or growth by half – at 4 days in series [3] (HepG2 cells) is over 25000 nM.
Regarding `Cc1cc(NC(=O)c2cc(C(=O)C(=O)NC(C)C)cn2C)ccc1F` [Compound 2, N-(4-fluoro-3-methylphenyl)-4-(2-(isopropylamino)-2-oxoacetyl)-1-methyl-1H-pyrrole-2-carboxamide], the results for the concentration for a half-maximal effect (EC50) in the series on HBV [1] (setting [6]) and with HBV [2] (setting [7]) were 0.029 µM and 0.75 µM, respectively. The same compound returned a CC50 at 4 days in series [3] (HepG2 cells) of over 25000 nM.
Consider `Cc1cc(NC(=O)c2cc(C(=O)C(=O)NC(C)(C)C)cn2C)ccc1F` [Compound 3, 4-(2-(tert-butylamino)-2-oxoacetyl)-N-(4-fluoro-3-methylphenyl)-1-methyl-1H-pyrrole-2-carboxamide], for which the concentration giving a half-maximal response (EC50) (commonly the midpoint of the concentration-response curve) in the series with HBV [1] (setting [4]) was 0.015 µM; in the series with HBV [2] (setting [5]), 0.04 µM. Further, the 50% cytotoxic concentration (CC50) at 4 days in series [3] (HepG2 cells) is over 25000 nM.
Regarding `Cc1c(C(=O)C(=O)NC(C)(C)C)c(Cl)c(C(=O)Nc2ccc(F)c(C#N)c2)n1C` [Compound 32, 4-[2-(tert-butylamino)-2-oxo-acetyl]-3-chloro-N-(3-cyano-4-fluoro-phenyl)-1,5-dimethyl-pyrrole-2-carboxamide], the EC50 with HBV [1] (setting [4]) and in the series on HBV [2] (setting [5]) was under 0.004 µM throughout. The 50% cytotoxic concentration (CC50) at 4 days in series [3] (HepG2 cells) is over 25000 nM.
For the compound `Cn1cc(C(=O)C(=O)NC(C)(C)C)cc1C(=O)Nc1cccc(C(F)(F)F)c1` [Compound 12, 4-(2-(tert-butylamino)-2-oxoacetyl)-1-methyl-N-(3-(trifluoromethyl)phenyl)-1H-pyrrole-2-carboxamide], the EC50 in the series on HBV [1] (setting [6]) was 0.043 µM; in the series on HBV [2] (setting [7]) it was 0.74 µM. In addition, the CC50 at 4 days in series [3] was over 25000 nM.
On to `Cc1c(C(=O)C(=O)NC(C)(C)C)cn(C)c1C(=O)Nc1ccc(F)c(F)c1` [Compound 21, 4-[(tert-Butylamino)(oxo)acetyl]-N-(3,4-difluorophenyl)-1,3-dimethyl-1H-pyrrole-2-carboxamide], for which the EC50 was determined as 0.009 µM in the series on HBV [1] (setting [4]) and 0.011 µM with HBV [2] (setting [5]). In addition, the CC50 at 4 days in series [3] (HepG2 cells) is over 25000 nM.
Take `Cc1c(C(=O)C(=O)NC(C)(C)C)c(C)n(C)c1C(=O)Nc1ccc(F)c(F)c1` [Compound 20, 4-[(tert-Butylamino)(oxo)acetyl]-N-(3,4-difluorophenyl)-1,3,5-trimethyl-1H-pyrrole-2-carboxamide]: the concentration giving a half-maximal response (EC50) with HBV [1] (setting [4]) is under 0.004 µM; in the series with HBV [2] (setting [5]), 0.002 µM. In series [3] (HepG2 cells), the 50% cytotoxic concentration (CC50) at 4 days was over 25000 nM.
The corresponding values for `C[C@@H](NC(=O)C(=O)c1cc(C(=O)Nc2cc(F)c(F)c(Cl)c2)n(C)c1)C(F)(F)F` [Compound 18, N-(3-Chloro-4,5-difluorophenyl)-1-methyl-4-(oxo{[(1R)-2,2,2-trifluoro-1-methylethyl]amino}acetyl)-1H-pyrrole-2-carboxamide] are 0.054 µM, 0.37 µM and over 25000 nM.
For the compound `Cn1cc(C(=O)C(=O)NC(C)(C)C)cc1C(=O)Nc1cc(F)c(F)c(Cl)c1` [Compound 14, 4-(2-(tert-butylamino)-2-oxoacetyl)-N-(3-chloro-4,5-difluorophenyl)-1-methyl-1H-pyrrole-2-carboxamide], the EC50 worked out at 0.03 µM in the series on HBV [1] (setting [4]) and 0.038 µM with HBV [2] (setting [5]). The compound further gave a 50% cytotoxic concentration (CC50) at 4 days in series [3] (HepG2 cells) of over 25000 nM.
The corresponding values for `Cn1cc(C(=O)C(=O)NC2(C)COC2)cc1C(=O)Nc1cc(F)c(F)c(Cl)c1` [Compound 17, N-(3-Chloro-4,5-difluorophenyl)-1-methyl-4-{[(3-methyloxetan-3-yl)-amino](oxo)acetyl}-1H-pyrrole-2-carboxamide] are 0.029 µM, 0.57 µM and over 25000 nM.
The corresponding values for `Cc1c(C(=O)C(=O)N[C@H](C)C(F)(F)F)cc(C(=O)Nc2ccc(F)c(C#N)c2)n1C` [Compound 28, N-(3-cyano-4-fluoro-phenyl)-1,5-dimethyl-4-[2-oxo-2-[[(1R)-2,2,2-trifluoro-1-methyl-ethyl]amino]acetyl]pyrrole-2-carboxamide] are under 0.004 µM, 0.019 µM and over 25000 nM.
Take `Cc1c(C(=O)C(=O)NC(C)(C)C)cn(C)c1C(=O)Nc1ccc(F)c(C#N)c1` [Compound 22, 4-[(tert-Butylamino)(oxo)acetyl]-N-(3-cyano-4-fluorophenyl)-1,3-dimethyl-1H-pyrrole-2-carboxamide]: the 50% effective concentration (EC50) with HBV [1] (setting [4]) worked out at 0.01 µM; with HBV [2] (setting [5]), 0.008 µM. The compound further registered a CC50 at 4 days in series [3] (HepG2 cells) of over 25000 nM.
In the case of `Cn1c(C(=O)Nc2ccc(F)c(C#N)c2)c(Cl)c(C(=O)C(=O)NC(C)(C)C)c1C(F)(F)F` [Compound 33, 4-[2-(tert-butylamino)-2-oxo-acetyl]-3-chloro-N-(3-cyano-4-fluoro-phenyl)-1-methyl-5-(trifluoromethyl)pyrrole-2-carboxamide], in the series with HBV [2] (setting [5]), the EC50 was determined as 0.247 µM. Further, the half-maximal cytotoxic concentration (CC50) at 4 days in series [3] (HepG2 cells) was over 25000 nM.
On to `COCC(C)(CCO)NC(=O)C(=O)c1cc(C(=O)Nc2ccc(F)c(C#N)c2)n(C)c1C` (centres unmarked) [Compound 70, N-(3-cyano-4-fluoro-phenyl)-4-[2-[[3-hydroxy-1-(methoxymethyl)-1-methyl-propyl]amino]-2-oxo-acetyl]-1,5-dimethyl-pyrrole-2-carboxamide], for which the EC50 in the series on HBV [2] (setting [5]) was determined as 0.025 µM. This compound also yielded a cytotoxic concentration (CC50) at 4 days in series [3] (HepG2 cells) of over 25000 nM.
The corresponding values for `CC[C@@H](NC(=O)C(=O)c1cn(C)c(C(=O)Nc2ccc(F)c(C#N)c2)c1Cl)C(F)(F)F` [Compound 38, 3-chloro-N-(3-cyano-4-fluoro-phenyl)-1-methyl-4-[2-oxo-2-[[(1R)-1-(trifluoromethyl)propyl]amino]acetyl]pyrrole-2-carboxamide] are 0.015 µM and over 25000 nM.
The corresponding values for `Cc1c(C(=O)C(=O)NC(C)(CO)C2CC2)cc(C(=O)Nc2ccc(F)c(C#N)c2)n1C` (centres unmarked) [Compound 77, N-(3-cyano-4-fluoro-phenyl)-4-[2-[(1-cyclopropyl-2-hydroxy-1-methyl-ethyl)amino]-2-oxo-acetyl]-1,5-dimethyl-pyrrole-2-carboxamide] are 0.012 µM and over 25000 nM.
For the compound `CCC(C)(CO)NC(=O)C(=O)c1cc(C(=O)Nc2ccc(F)c(C#N)c2)n(C)c1C` (centres unmarked) [Compound 76, N-(3-cyano-4-fluoro-phenyl)-4-[2-[[1-(hydroxymethyl)-1-methyl-propyl]-amino]-2-oxo-acetyl]-1,5-dimethyl-pyrrole-2-carboxamide], the EC50 in the series on HBV [2] (setting [5]) amounted to 0.013 µM. Moreover, the 50% cytotoxic concentration (CC50) at 4 days in series [3] (HepG2 cells) is over 25000 nM.
The corresponding values for `C[C@@H](NC(=O)C(=O)c1c(Cl)c(C(=O)Nc2ccc(F)c(C#N)c2)n(C)c1Br)C(F)(F)F` [Compound 29, 5-bromo-3-chloro-N-(3-cyano-4-fluoro-phenyl)-1-methyl-4-[2-oxo-2-[[(1R)-2,2,2-trifluoro-1-methyl-ethyl]amino]acetyl]pyrrole-2-carboxamide] are 0.014 µM and over 25000 nM.
The matching figures for `Cn1c(Cl)c(C(=O)C(=O)NC2(C(F)(F)F)CCOC2)c(F)c1C(=O)Nc1ccc(F)c(C#N)c1` (centres unmarked) [Compound 89, 5-chloro-N-(3-cyano-4-fluoro-phenyl)-3-fluoro-1-methyl-4-[2-oxo-2-[[3-(trifluoromethyl)tetrahydrofuran-3-yl]amino]acetyl]pyrrole-2-carboxamide]: 0.008 µM and over 25000 nM.
Take `Cn1cc(C(=O)C(=O)NC2(C(F)(F)F)CCOC2)c(F)c1C(=O)Nc1ccc(F)c(C#N)c1` (centres unmarked) [Compound 83, N-(3-cyano-4-fluoro-phenyl)-3-fluoro-1-methyl-4-[2-oxo-2-[[3-(trifluoro-methyl)tetrahydrofuran-3-yl]amino]acetyl]pyrrole-2-carboxamide]: the EC50 with HBV [2] (setting [5]) turned out to be 0.006 µM. Further, the CC50 at 4 days in series [3] (HepG2 cells) is 11800 nM.
Regarding `CC[C@@H](C)NC(=O)C(=O)c1cc(C(=O)Nc2ccc(F)c(C#N)c2)n(C)c1C` [Compound 53, N-(3-cyano-4-fluoro-phenyl)-1,5-dimethyl-4-[2-[[(1R)-1-methylpropyl]-amino]-2-oxo-acetyl]pyrrole-2-carboxamide], in the series on HBV [2] (setting [5]), the EC50 amounted to 0.039 µM. This compound gave a CC50 at 4 days in series [3] (HepG2 cells) of over 25000 nM.
The corresponding values for `Cn1cc(C(=O)C(=O)NC2(C)CC(F)(F)C2)c(Cl)c1C(=O)Nc1ccc(F)c(C#N)c1` [Compound 40, 3-chloro-N-(3-cyano-4-fluoro-phenyl)-4-[2-[(3,3-difluoro-1-methyl-cyclobutyl)amino]-2-oxo-acetyl]-1-methyl-pyrrole-2-carboxamide] are 0.007 µM and over 25000 nM.
The corresponding values for `Cn1cc(C(=O)C(=O)NC(C)(C)C)c(F)c1C(=O)Nc1ccc(F)c(C#N)c1` [Compound 34, 4-[2-(tert-butylamino)-2-oxo-acetyl]-N-(3-cyano-4-fluoro-phenyl)-3-fluoro-1-methyl-pyrrole-2-carboxamide] are 0.009 µM and over 25000 nM.
The matching figures for `COCC(C)(C)NC(=O)C(=O)c1cn(C)c(C(=O)Nc2ccc(F)c(C#N)c2)c1F` [Compound 96, N-(3-cyano-4-fluoro-phenyl)-3-fluoro-4-[2-[(2-methoxy-1,1-dimethyl-ethyl)amino]-2-oxo-acetyl]-1-methyl-pyrrole-2-carboxamide]: 0.006 µM and over 25000 nM.
For the compound `Cc1c(C(=O)C(=O)NC2(C)CCCOC2)cc(C(=O)Nc2ccc(F)c(C#N)c2)n1C` (centres unmarked) [Compound 78, N-(3-cyano-4-fluoro-phenyl)-1,5-dimethyl-4-[2-[(3-methyltetrahydropyran-3-yl)amino]-2-oxo-acetyl]pyrrole-2-carboxamide], the concentration for a half-maximal effect (EC50) with HBV [2] (setting [5]) is 0.008 µM. Further, the half-maximal cytotoxic concentration (CC50) at 4 days in series [3] (HepG2 cells) is over 25000 nM.

Values taken from patent US10450270B2, “Glyoxamide substituted pyrrolamide derivatives and the use thereof as medicaments for the treatment of hepatitis B” (Janssen Sciences Ireland UC, priority 2013, dated 2019).
